According to article PMC8329197, “Compounds targeting OSBPL7 increase ABCA1-dependent cholesterol efflux preserving kidney function in two models of kidney disease” (Nature Communications, 2021):
Values joined by “and” are separate entries in the source; they are usually repeats but may differ in a detail not shown here. Identical values can stand only once.

Key:
human podocytes = assay: apoAI-mediated cholesterol efflux in human podocytes; assay type: cell-based; settings: for ApoA1-mediated cholesterol efflux (%) in podocytes: single experiments
Experimental: Cell lines were purchased from ATCC and subcultured for no more than passage 15, except for human podocytes, which were originally from Dr Jochen Reiser. Conditionally immortalized human podocytes were cultured under permissive conditions at 33 °C, in RPMI medium (Corning) containing 10% FBS (GIBCO), 1% penicillin/streptomycin, 0.01 mg/ml recombinant human insulin, 0.0055 mg/ml human transferrin (substantially iron-free), and 0.005 μg/ml sodium selenite (ITS, Corning). To induce differentiation, podocytes were cultured at 37 °C for 14 days in RPMI medium containing 10% FBS (GIBCO) and 1% penicillin/streptomycin. Differentiated podocytes were starved in RPMI-0.2% FBS for 18 h and then treated with 1 μM, 5 μM, and 10 μM of compounds freshly prepared in DMSO for 18 h at 37 °C as indicated.
Human podocytes differentiated for 13 days were labeled for 24 h at 37 °C in RPMI medium containing 2% FBS and [^3H]-cholesterol (1 μCi/ml, American Radiolabeled Chemicals). Cells were then washed 3 times with PBS and incubated with RPMI supplemented with 0.2% fat free-BSA (Sigma) with or without compounds for 18-h at 37 °C. The compounds were used at the following concentrations: Cpd C (1 μM), Cpd A (1 μM, 5 μM) and Cpd G (1 μM, 5 μM, 10 μM). Following the 18-h incubation, human apoAI (Calbiochem) was added to the media, (20 μg/mL final concentration) and the cells were incubated for another 18 h at 37 °C. Aliquots of medium collected before (T = 0 h) and after (T = 18 h) the addition of apoAI were centrifuged at 12,000 × g for 5 min and the radioactivity in the supernatant was counted by liquid scintillation. Cells were then washed with PBS, lysed 0.1% SDS, 0.1M NaOH and the radioactivity in the lysates was quantified by liquid scintillation. apoAI-mediated cholesterol efflux, expressed as %, was calculated as the amount of label released to the medium after adding apoAI (the difference in radioactivity in the medium before and after adding ApoA1) divided by the amount of total label in each well (radioactivity released to the media plus radioactivity in the lysed cells).

[1] = tested on: Adriamycin (ADR)-induced nephropathy in Balb/c mice; assay: ADR nephropathy: WBC, hemoglobin, hematocrit, ALT, AST; assay type: in vivo, mouse
[2] = tested on: Adriamycin (ADR)-induced nephropathy in Balb/c mice; assay: ADR nephropathy: IL-1β and MCP-1 mRNA in kidney cortex; assay type: in vivo, mouse
Experimental: RNA was isolated using RNEasy Plus Mini kit (Qiagen). Reverse transcription was performed using qScript cDNA Super Mix (Quantabio) according to the manufacturer’s instructions. Quantitative real-time PCR was performed using TaqMan Fast Universal PCR Master Mix and Taqman gene expression assays (Supplementary Table 7).

Hepatocytes Clint, human = assay type: in vitro ADME
[3] = ADR-induced nephropathy, 28 days treatment, 25th quartile
[4] = ADR-induced nephropathy, 28 days treatment, 75th quartile
[5] = ADR-induced nephropathy, 28 days treatment, group maximum
[6] = ADR-induced nephropathy, 28 days treatment, group median
[7] = ADR-induced nephropathy, 28 days treatment, group minimum
[8] = ADR-induced nephropathy, 28 days treatment, individual mouse values

O=C(N[C@@H]1CCCC[C@H]1O)c1cnc(OCC(F)(F)F)c(-c2ccc(Cl)c(Cl)c2)c1 [Cpd G]
ApoA1-mediated cholesterol efflux (%) in podocytes (human podocytes; 1 uM): 0.3% and 1.2% and 1.6% | ApoA1-mediated cholesterol efflux (%) in podocytes (human podocytes; 5 uM): 0% and 2.5% and 2.3% | ApoA1-mediated cholesterol efflux (%) in podocytes (human podocytes; 10 uM): 4.4% and 7.9% | Increase in apoAI-mediated cholesterol efflux vs. untreated cells (human podocytes; Cpd G 10 µM, Cpd A 5 µM, Cpd C 1 µM): ~2 fold | ADR-induced increase of ALT and AST ([1]; 28 days): partially attenuated | ALT, Median (IQR) ([1]; ADR-induced nephropathy): 213 (105-239) U/L | ALT, Range ([1]; ADR-induced nephropathy): 90-317 U/L | AST, Median (IQR) ([1]; ADR-induced nephropathy): 213 (156-220) U/L | AST, Range ([1]; ADR-induced nephropathy): 124-401 U/L | HTC, Median (IQR) ([1]; ADR-induced nephropathy): 51 (48-52) % | HTC, Range ([1]; ADR-induced nephropathy): 46-57% | Hgb, Median (IQR) ([1]; ADR-induced nephropathy): 13 g/dL | Hgb, Range ([1]; ADR-induced nephropathy): 12.2 to 13.7 g/dL | WBC, Median (IQR) ([1]; ADR-induced nephropathy): 5.2 (3.4-6.5) x103cells/µL | WBC, Range ([1]; ADR-induced nephropathy): 2.5-6.5 x103cells/µL | HTC, QR(25) [1, 3]: 49.25% | Hgb, QR(25) [1, 3]: 12.6 g/dL | WBC, QR(25) [1, 3]: 3.85 x 10^3 cells/ul | HTC, QR(75) [1, 4]: 51.75% | Hgb, QR(75) [1, 4]: 13.4 g/dL | WBC, QR(75) [1, 4]: 6.425 x 10^3 cells/ul | HTC, Max [1, 5]: 57% | Hgb, Max [1, 5]: 13.7 g/dL | WBC, Max [1, 5]: 9.8 x 10^3 cells/ul | HTC, Median [1, 6]: 51% | Hgb, Median [1, 6]: 13.1 g/dL | WBC, Median [1, 6]: 5.45 x 10^3 cells/ul | HTC, Min [1, 7]: 46% | Hgb, Min [1, 7]: 12.2 g/dL | WBC, Min [1, 7]: 2.5 x 10^3 cells/ul | Alanine Aminotransferase (ALT) [1, 8]: 220 U/dL and 105 U/dL and 213 U/dL and 156 U/dL and 239 U/dL and 317 U/dL and 90 U/dL | Aspartate Aminotransferase (AST) [1, 8]: 217 U/dL and 156 U/dL and 401 U/dL and 213 U/dL and 220 U/dL and 124 U/dL | Hematocrit HTC [1, 8]: 57% and 51% and 54% and 47% and 46% and 49% and 52% and 50% | White Blood Cells WBC [1, 8]: 9.8 x 10^3 cells/ul and 5.5 x 10^3 cells/ul and 6.2 x 10^3 cells/ul and 2.5 x 10^3 cells/ul and 5.2 x 10^3 cells/ul and 6.5 x 10^3 cells/ul and 3.4 x 10^3 cells/ul and 5.4 x 10^3 cells/ul and 8.9 x 10^3 cells/ul | IL1β in kidney cortex ([2]; ADR + Cpd G): reduced | MCP-1 in kidney cortex ([2]; ADR + Cpd G): reduced | Relative MCP1/PGK1 mRNA Expression (RQ) ([2]; kidney cortexes after ADR injection, No ADR group as reference, individual mice): 0.39 and 4.08 (2×) and 0.99 and 0.91 and 1.65 (2×) and 0.3536 and 0.2392 and 0.3907 and 0.9918 and 0.906 and 0.35 and 0.24 | Relative MCP1/PGK1 mRNA Expression (RQ), Median ([2]; kidney cortexes after ADR injection, group median): 0.91 | Relative IL1-B/PGK1 mRNA Expression (RQ) ([2]; kidney cortexes, ADR, 100 mg/Kg/Day for 28 days, No ADR group as reference, individual mice, 100 mg/kg/day): 0.44 and 1.49 and 0.38 and 0.75 and 0.61 and 2.626 and 0.452 and 0.4443 and 1.494 and 0.3797 and 0.7453 and 0.6111 and 2.63 and 0.45 | Relative IL1-B/PGK1 mRNA Expression (RQ), Median ([2]; kidney cortexes, ADR, 100 mg/Kg/Day for 28 days, group median): 0.61 | Hepatocytes Clint (Fh%) (r/h) (Hepatocytes Clint, human): > 80%
